Test results reported in patent US6372243B2, “Low-oxygen fluorocarbon as an agent for ophthalmology” (Pharm pur GmbH, priority 1998, dated 2002).

Test system: retinal blood vessels
Experiment: fluorocarbon inserted into the vitreous area of the rabbit eye, examination for retinal vessel damage
Type: in vivo
Conditions: 1.2 ml into one eye each of two rabbits after gas compression of the vitreous body; durations of between two days and six weeks
Description: In fluorescence angiography, a narrowing of the vessels appears from the second post-operative day. As time passes, vessel occlusions, a rarefaction of the capillary bed and the development of microaneurisms appear.
This oxygen-lacking perfluorodecalin was then sterile filtered and injected into one eye each of two rabbits, whereby, prior to the injection, the vitreous body was gas compressed in a known manner. After the gas compression, the gas was […] exchanged for 1.2 ml of the deoxygenated perfluorodecalin, so that about two thirds of the vitreous body area, including the area of the retinal blood vessels, was filled with perfluorodecalin.
After durations of between two days and six weeks, the eyes were examined for vessel damage.

FC1(F)C(F)(F)C(F)(F)C2(F)C(F)(F)C(F)(F)C(F)(F)C(F)(F)C2(F)C1(F)F (stereo not shown) [oxygen-lacking perfluorodecalin, perfluorodecalin] was tested, and the “eyes examined for vessel damage, in comparison to the untreated eye” value was “completely normal condition”.
